The target in one assay is GTP-binding protein 4 (Homo sapiens, UniProt Q9BZE4).
Assay [1] addresses Mitogen-activated protein kinase 14 (Homo sapiens, UniProt Q16539).
Assay [2] concerns the target Mitogen-activated protein kinase 11 (Homo sapiens, UniProt Q15759).
For assay [3], the target named is T1, Serine/threonine-protein kinase LATS1 (Homo sapiens, UniProt O95835).
T1 sequence (O95835 whole entry): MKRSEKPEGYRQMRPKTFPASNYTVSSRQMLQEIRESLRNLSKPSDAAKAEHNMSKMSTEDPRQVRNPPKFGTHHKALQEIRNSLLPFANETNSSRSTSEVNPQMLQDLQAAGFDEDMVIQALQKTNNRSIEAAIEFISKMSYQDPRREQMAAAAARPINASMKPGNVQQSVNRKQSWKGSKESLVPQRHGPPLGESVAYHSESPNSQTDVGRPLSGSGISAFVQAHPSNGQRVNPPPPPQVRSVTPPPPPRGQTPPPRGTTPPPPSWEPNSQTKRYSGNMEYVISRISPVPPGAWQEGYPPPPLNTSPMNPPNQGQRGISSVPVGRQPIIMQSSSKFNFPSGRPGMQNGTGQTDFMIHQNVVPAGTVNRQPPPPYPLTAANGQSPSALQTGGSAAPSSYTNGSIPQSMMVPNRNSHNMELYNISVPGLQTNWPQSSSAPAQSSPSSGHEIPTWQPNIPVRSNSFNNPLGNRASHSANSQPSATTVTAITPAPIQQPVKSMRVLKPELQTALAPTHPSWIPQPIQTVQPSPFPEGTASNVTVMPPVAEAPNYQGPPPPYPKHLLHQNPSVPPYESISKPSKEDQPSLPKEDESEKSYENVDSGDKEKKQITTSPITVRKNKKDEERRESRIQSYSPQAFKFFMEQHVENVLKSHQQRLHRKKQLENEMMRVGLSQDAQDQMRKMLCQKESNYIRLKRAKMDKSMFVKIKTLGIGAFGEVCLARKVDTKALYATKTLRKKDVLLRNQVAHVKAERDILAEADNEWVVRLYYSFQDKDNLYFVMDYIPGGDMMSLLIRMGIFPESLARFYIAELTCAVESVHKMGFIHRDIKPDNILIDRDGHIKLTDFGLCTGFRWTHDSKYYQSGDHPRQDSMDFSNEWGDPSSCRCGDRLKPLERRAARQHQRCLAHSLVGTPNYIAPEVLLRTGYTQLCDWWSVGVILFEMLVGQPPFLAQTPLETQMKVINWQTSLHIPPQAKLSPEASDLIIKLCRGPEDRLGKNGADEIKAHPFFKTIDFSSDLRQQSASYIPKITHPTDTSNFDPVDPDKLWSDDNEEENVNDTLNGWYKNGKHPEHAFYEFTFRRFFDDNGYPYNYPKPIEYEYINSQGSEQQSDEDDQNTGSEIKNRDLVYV

Assay [4] deals with Tyrosine-protein kinase CSK (Homo sapiens, UniProt P41240).
Tyrosine-protein kinase CSK, sequence (P41240 whole entry): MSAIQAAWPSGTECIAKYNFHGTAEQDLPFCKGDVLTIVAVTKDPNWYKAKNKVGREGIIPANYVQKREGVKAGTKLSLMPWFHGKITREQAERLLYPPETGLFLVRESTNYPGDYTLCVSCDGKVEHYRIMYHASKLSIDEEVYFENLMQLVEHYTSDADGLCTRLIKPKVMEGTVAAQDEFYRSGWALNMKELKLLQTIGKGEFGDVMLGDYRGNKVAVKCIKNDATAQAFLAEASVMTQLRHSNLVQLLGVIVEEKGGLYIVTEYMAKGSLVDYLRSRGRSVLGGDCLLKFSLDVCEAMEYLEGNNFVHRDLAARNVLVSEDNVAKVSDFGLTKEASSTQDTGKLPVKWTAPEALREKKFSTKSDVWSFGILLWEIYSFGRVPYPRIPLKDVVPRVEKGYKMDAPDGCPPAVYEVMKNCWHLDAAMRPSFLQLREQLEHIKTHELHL
For assay [5], the target named is GTP-binding nuclear protein Ran (Homo sapiens, UniProt P62826).
Assay [6] deals with Glycogen synthase kinase-3 beta (Homo sapiens, UniProt P49841).
Glycogen synthase kinase-3 beta, sequence (P49841 whole entry): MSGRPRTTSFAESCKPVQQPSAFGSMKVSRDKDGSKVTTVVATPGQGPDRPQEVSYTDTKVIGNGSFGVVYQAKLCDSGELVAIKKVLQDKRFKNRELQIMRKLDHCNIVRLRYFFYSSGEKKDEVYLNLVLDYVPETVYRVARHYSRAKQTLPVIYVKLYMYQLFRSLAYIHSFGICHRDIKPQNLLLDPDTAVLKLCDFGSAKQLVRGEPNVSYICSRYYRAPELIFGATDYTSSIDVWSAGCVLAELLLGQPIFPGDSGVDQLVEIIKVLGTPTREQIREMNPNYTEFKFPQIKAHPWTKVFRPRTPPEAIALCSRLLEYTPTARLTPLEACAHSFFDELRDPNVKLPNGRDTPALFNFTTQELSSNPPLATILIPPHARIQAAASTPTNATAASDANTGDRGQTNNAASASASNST
The target in assay [7] is T2, Mitogen-activated protein kinase kinase kinase kinase 3 (Homo sapiens, UniProt Q8IVH8).
T2 sequence (Q8IVH8 whole entry): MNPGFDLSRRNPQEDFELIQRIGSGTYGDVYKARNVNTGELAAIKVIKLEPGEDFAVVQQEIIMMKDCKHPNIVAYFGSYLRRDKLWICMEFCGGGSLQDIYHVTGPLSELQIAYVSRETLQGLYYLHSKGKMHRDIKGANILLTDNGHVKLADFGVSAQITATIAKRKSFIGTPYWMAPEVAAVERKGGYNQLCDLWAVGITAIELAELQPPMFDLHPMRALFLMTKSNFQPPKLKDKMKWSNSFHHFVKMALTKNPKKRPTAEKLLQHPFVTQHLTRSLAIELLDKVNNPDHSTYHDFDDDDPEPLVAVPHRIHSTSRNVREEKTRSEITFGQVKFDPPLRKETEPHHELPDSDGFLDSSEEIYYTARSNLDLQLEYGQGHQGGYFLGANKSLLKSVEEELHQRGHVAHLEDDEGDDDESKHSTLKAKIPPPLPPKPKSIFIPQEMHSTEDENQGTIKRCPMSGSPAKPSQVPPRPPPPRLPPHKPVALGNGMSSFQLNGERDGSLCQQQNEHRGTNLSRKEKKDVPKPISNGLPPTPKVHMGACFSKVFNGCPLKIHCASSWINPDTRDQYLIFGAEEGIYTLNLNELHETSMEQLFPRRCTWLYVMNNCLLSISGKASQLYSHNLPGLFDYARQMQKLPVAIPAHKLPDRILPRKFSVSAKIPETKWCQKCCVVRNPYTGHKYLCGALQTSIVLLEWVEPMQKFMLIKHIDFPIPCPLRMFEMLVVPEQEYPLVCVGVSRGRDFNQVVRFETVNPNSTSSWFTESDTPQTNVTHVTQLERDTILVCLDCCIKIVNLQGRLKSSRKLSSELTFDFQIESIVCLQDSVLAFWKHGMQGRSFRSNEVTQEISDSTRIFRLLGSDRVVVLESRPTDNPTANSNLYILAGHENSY

Active and inactive are the calls of the source. Cut-off read from the data, not from the text of the source, for most assays here: actives have a measured Kd and inactives only a lower limit.
Note: in the data inactive means no Kd found up to 30 µM.

Mitogen-activated protein kinase 14, sequence (Q16539 whole entry): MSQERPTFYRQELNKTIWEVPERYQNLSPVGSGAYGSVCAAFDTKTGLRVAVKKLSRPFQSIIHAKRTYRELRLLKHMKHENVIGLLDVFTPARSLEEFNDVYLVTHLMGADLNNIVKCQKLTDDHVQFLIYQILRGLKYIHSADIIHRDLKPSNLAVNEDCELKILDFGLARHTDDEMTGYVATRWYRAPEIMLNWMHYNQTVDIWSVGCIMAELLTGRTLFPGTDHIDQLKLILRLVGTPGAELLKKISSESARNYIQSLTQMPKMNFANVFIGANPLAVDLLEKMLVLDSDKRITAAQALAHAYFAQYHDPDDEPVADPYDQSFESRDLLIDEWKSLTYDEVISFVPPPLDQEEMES
Mitogen-activated protein kinase 11, sequence (Q15759 whole entry): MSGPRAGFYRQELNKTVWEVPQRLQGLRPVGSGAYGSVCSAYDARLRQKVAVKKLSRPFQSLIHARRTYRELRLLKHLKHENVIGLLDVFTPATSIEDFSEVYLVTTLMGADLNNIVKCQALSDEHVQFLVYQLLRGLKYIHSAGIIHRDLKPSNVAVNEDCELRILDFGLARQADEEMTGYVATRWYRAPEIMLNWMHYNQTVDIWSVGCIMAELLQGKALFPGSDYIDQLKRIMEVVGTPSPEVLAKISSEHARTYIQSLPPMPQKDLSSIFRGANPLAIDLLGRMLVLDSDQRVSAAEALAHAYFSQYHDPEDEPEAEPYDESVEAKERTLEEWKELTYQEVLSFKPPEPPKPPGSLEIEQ

Take `Cn1c(=O)c(F)c(Nc2ccc(I)cc2F)c2c(=O)n(C[C@@H](O)CO)cnc21` [TAK-733]: the Kd (at GTP-binding protein 4; in assay [1]; in assay [2]; in assay [3]; in assay [4]; in assay [5]) was > 30 µM (inactive) throughout. Further, the Kd in assay [6] and in assay [7] was > 30 µM (inactive) in each case.
In the case of `COc1cc2ncnc3c2cc1OCCCCCN(C)Cc1ccc(Br)cc1N3` [JNJ-26483327], the Kd (on GTP-binding protein 4; in assay [1]; in assay [2]; in assay [3]; in assay [4]; in assay [5]) was > 30 µM (inactive) each time. Also, the Kd in assay [6] and in assay [7] was > 30 µM (inactive) in each case.
As for `FC(F)(F)c1ccc(CNc2ccc(Cc3c[nH]c4ncc(Cl)cc34)cn2)cn1` [PEXIDARTINIB], the Kd (at GTP-binding protein 4; in assay [1]; in assay [2]; in assay [3]; in assay [4]; in assay [5]) was > 30 µM (inactive) each time. The Kd in assay [6] and in assay [7] was > 30 µM (inactive) in each case.
With `O=C(NC[C@H](O)CO)c1ccncc1Nc1ccc(I)cc1F` [PIMASERTIB], the Kd (on GTP-binding protein 4; in assay [1]; in assay [2]; in assay [3]; in assay [4]; in assay [5]) was > 30 µM (inactive) throughout. Besides, the Kd in assay [6] and in assay [7] was > 30 µM (inactive) in each case.
`CC[C@@](C)(Nc1ccnc(-c2c[nH]c3ncccc23)n1)C(=O)NCC(F)(F)F` [DECERNOTINIB]: the Kd (on GTP-binding protein 4; in assay [1]; in assay [2]; in assay [3]; in assay [4]; in assay [5]) was > 30 µM (inactive) in each case. Moreover, the Kd in assay [6] and in assay [7] was > 30 µM (inactive) each time.
With `CC(C)(O)CC(=O)NCCn1ccc2ncnc(Nc3ccc(Oc4cccc(C(F)(F)F)c4)c(Cl)c3)c21` [TAK-285], the Kd (on GTP-binding protein 4; in assay [1]; in assay [2]; in assay [3]; in assay [4]; in assay [5]) was > 30 µM (inactive) each time. Further, the Kd in assay [6] and in assay [7] was > 30 µM (inactive) throughout.
Regarding `CC(C)CC(=O)Nc1[nH]nc2c1CN(C(=O)C1CCN(C)CC1)C2(C)C` [PHA-793887], the Kd (on GTP-binding protein 4; in assay [1]; in assay [2]; in assay [3]; in assay [4]; in assay [5]) was > 30 µM (inactive) throughout. The dissociation constant (Kd) in assay [6] is 0.012 µM (active); in assay [7], > 30 µM (inactive).
As to `COc1cccc(Nc2ncnn3ccc(CN4CC[C@@H](N)[C@H](O)C4)c23)c1` [BMS-690514], the Kd is > 30 µM (inactive) on GTP-binding protein 4; > 30 µM (inactive) in assay [1]; > 30 µM (inactive) in assay [2]; > 30 µM (inactive) in assay [3]; 1.72 µM (active) in assay [4]; > 30 µM (inactive) in assay [5]. Besides, the Kd in assay [6] and in assay [7] was > 30 µM (inactive) in each case.
For the compound `S=C(NCc1ccc2c(c1)OCO2)N1CCN(c2ncnc3c2oc2ccccc23)CC1` [AMUVATINIB], the Kd (on GTP-binding protein 4; in assay [1]; in assay [2]; in assay [3]; in assay [4]; in assay [5]) was > 30 µM (inactive) throughout. Also, the Kd in assay [6] and in assay [7] was > 30 µM (inactive) throughout.

As usually defined, the Kd is the free concentration of one partner at which half of the binding sites on the other are occupied at equilibrium, for simple one-to-one binding.

The values above are taken from ChEMBL document CHEMBL3991601, “The target landscape of clinical kinase drugs” (Science, 2017).
